PubChem BioAssay (NCI)
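Briefly, cells in 96-well plates were exposed to five compound concentrations for 48 h, and endpoints were estimated by linear interpolation. GI50 = concentration required for 50% inhibition of growth. Definition used: TGI = concentration required for complete inhibition of growth.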

How the values were obtained:
Experiment in all cases: inhibition of tumour cell growth, NCI panel, 48 h
[1] = system: BT-549 breast
[2] = system: COLO 205 colon
[3] = system: HCT-116 colon
[4] = system: MCF7 breast
[5] = system: MDA-MB-435
[6] = system: MOLT-4 leukemia
[7] = system: NCI-H460 lung
[8] = system: NCI-H522 lung
[9] = system: SN12C renal
[10] = system: SR leukemia

Compound	TGI [1] [µM]	TGI [2] [µM]	TGI [3] [µM]	TGI [4] [µM]	TGI [5] [µM]	TGI [6] [µM]	TGI [7] [µM]	TGI [8] [µM]	TGI [9] [µM]	TGI [10] [µM]	GI50 [1] [µM]	GI50 [2] [µM]	GI50 [4] [µM]	GI50 [5] [µM]	GI50 [6] [µM]	GI50 [7] [µM]	GI50 [9] [µM]	GI50 [10] [µM]	GI50 [3] [µM]	GI50 [8] [µM]
CNC(=O)Nc1ccccc1	> 100	> 100	> 100	> 100	> 100	> 100	> 100	> 100	> 100	> 100										
Nc1nc(=O)n(CC(O)CO)s1 (centres undefined)		> 100	> 100			> 100	> 100		> 100	> 100										
C[N+](C)(CCO)CCN1c2ccccc2Sc2ccccc21		> 10	> 10	> 10	> 10	> 10	> 10	> 10	> 10	> 10										
CC(=O)C1=C(O)CCC1=O	> 100	> 100	> 100	> 100	> 100	> 100	> 100	> 100	> 100	> 100										
COc1cc2c(cc1OCCCN1CCN(c3ncnc4ccccc34)CC1)N=CC1CCCN1C2=O (centres undefined)	0.0895	0.0446		1.02	0.0498	0.0596	0.298	0.0285	3.97	0.0968	0.0248	0.0203	0.0189	0.0214	0.0175	0.0282	0.0374	< 0.0149		
C[C@]12CCC(=O)C=C1CC[C@@H]1[C@@H]2[C@@H](O)C[C@@]2(C)[C@H]1CC[C@]2(O)C(=O)COC(=O)C1CCCC1	> 100	> 100	> 100	> 100	> 100		> 100	> 100	> 100	> 100										
O=C(NNC(=O)c1nsc2ccccc12)c1ccc(Cl)cc1		66	39.2			50.2	> 100		33.7	75.5										
COc1ccc2nc3ccccc3c(NCc3ccc(C)cc3)c2c1	4.7	3.78	6.24		2.89	11.5	4.15	4.67	3.78	6.04	2.01	1.65		1.44	3.04	1.97	1.64	1.81	0.848	1.94
Cn1c(=O)c2c(nc(NCCNc3nc4c(c(=O)n(C)c(=O)n4C)n3C)n2C)n(C)c1=O	> 100		> 100		> 100	> 100	> 100	> 100	> 100	> 100										
O=S(O)c1cc(Cl)cc(Cl)c1OCc1ccccc1			> 100			> 100	> 100	> 100	> 100	> 100										
COc1cc2c(cc1OC)-c1cc3ccc(OC)c(OC)c3c[n+]1CC2	> 100	> 100	> 100	> 100	> 100	> 100	> 100	> 100	> 100	> 100										
